Assay results as given in patent publication US10995101B2, “2-oxo-thiazole derivatives as A2A inhibitors and compounds for use in the treatment of cancers” (iTeos Therapeutics SA, priority 2017, dated 2021).
“And” between values parts separate entries of the source, which are not always exact repeats. Equal values may be shown once. Read-outs that look alike come from different tables or passages of the source.

Assay: Concentration in brain and cerebrospinal fluid compared to plasma
Format: in vivo, mice
Details: for concentration at 0.5 h / Kp at 0.5 h / plasma concentration at 0.5 h: female, Balb-c, mouse, po; for plasma concentration at 0.5 h: Plasma Concentration (ng/mL)
Description: 7-9 weeks old female Balb-c mice (obtained from SLAC Laboratory Animal Co. Ltd., Shanghai, China or SIPPR-B&K Laboratory Animal Co. Ltd., Shanghai, China) were dosed orally at a dose of 10 mg/kg, as a 1.00 mg/mL suspension in 10% DMSO+10% solutol+80% water, adjusted to pH 3-4 (homogenous opaque suspension).
Animals were fasted at least 12 hours prior to the administration. All animals had access to Certified Rodent Diet (Catalog # M01-F, SLAC Laboratory Animal Cl. Ltd., Shanghai, China) ad libitum 4 hours post dosing. Serial bleeding (about 30 μL blood per time point) were performed from submadibular or saphenous vein. Those samples were transferred into prechilled microcentrifuge tubes containing 2 μL of K2EDTA (0.5M) as anti-coagulant and placed on wet ice for further treatment. Immediately after blood collection, the whole brain was harvested immediately at the designed time points. At selected timepoints post-dose, CSF was collected from cisterna magna.
Blood samples were processed for plasma by centrifugation at approximately 4° C., 3000 g 15 min within half an hour of collection. Plasma samples were stored in polypropylene tubes, quick frozen over dry ice and kept at −70° C. until LC/MS/MS analysis. Brain samples were weighed, rinsed in cold distilled water to remove blood, and homogenized using pre-cooled water at the ratio of 1:4 (1 g brain used 4 mL water). And the brain homogenization was kept at −70° C. until LC/MSMS analysis. CSF was quick frozen over dry ice and kept at −70° C. until LC/MS/MS analysis.

[1] = individual mice, PO 10 mg/kg, 0.500 h, 10 mg/kg

Q: Which concentration at 0.5 h (CSF, 10 mg/kg, individual mice, PO 10 mg/kg, 0.500 h, read-out: CSF Concentration) does the source give for `NC(=O)COc1cc(N2CCN(CCn3c(=O)sc4c3nc(N)n3nc(-c5ccco5)nc43)CC2)c(F)cc1F` [Compound 4, 2-(5-(4-(2-(5-amino-8-(furan-2-yl)-2-oxothiazolo[5,4-e][1,2,4]triazolo [1,5-c]pyrimidin-3(2H)-yl)ethyl)piperazin-1-yl)-2,4-difluorophenoxy)acetamide] here?
A: < 3 ng/mL

Q: And the Kp at 0.5 h (CSF, 10 mg/kg, individual mice, PO 10 mg/kg, 0.500 h, read-out: CSF/Plasma Ratio)?
A: < 0.005

Q: And the concentration at 0.5 h (CSF, 10 mg/kg, mean of 3 mice, PO 10 mg/kg, 0.500 h, read-out: CSF Concentration (ng/mL), Mean)?
A: < 3 ng/mL

Q: And the Kp at 0.5 h (CSF, 10 mg/kg, mean of 3 mice, PO 10 mg/kg, 0.500 h, read-out: CSF/Plasma Ratio, Mean)?
A: < 0.004

Q: And the concentration at 0.5 h (brain, 10 mg/kg, individual mice, PO 10 mg/kg, 0.500 h, read-out: Brain Concentration)?
A: < 15 ng/g

Q: And the Kp at 0.5 h (brain, 10 mg/kg, individual mice, PO 10 mg/kg, 0.500 h, read-out: Brain/Plasma Ratio)?
A: < 0.026

Q: What about the concentration at 0.5 h (brain, 10 mg/kg, mean of 3 mice, PO 10 mg/kg, 0.500 h, read-out: Brain Concentration (ng/g), Mean) of the same compound?
A: < 16 ng/g

Q: What about the Kp at 0.5 h (brain, 10 mg/kg, mean of 3 mice, PO 10 mg/kg, 0.500 h, read-out: Brain/Plasma Ratio, Mean) of the same compound?
A: < 0.021

Q: And the plasma concentration at 0.5 h (10 mg/kg, Mean, mean of 3 mice, PO 10 mg/kg, 0.500 h)?
A: 779 ng/mL

Q: And the plasma concentration at 0.5 h (10 mg/kg, individual mice, PO 10 mg/kg, 0.500 h, female Balb-c mice)?
A: 576 ng/mL

Q: What about the “CSF Concentration” value (individual mice, PO 10 mg/kg, 0.500 h) of the same compound?
A: <3 ng/mL

Q: What about the “Plasma Concentration” value (individual mice, PO 10 mg/kg, 0.500 h, female Balb-c mice, 10 mg/kg) of the same compound?
A: 995 ng/mL and 765 ng/mL

Q: And the “Brain Concentration” value [1]?
A: 16.9 ng/g and <15 ng/g

Q: What about the “Brain/Plasma Ratio” value [1] of the same compound?
A: 0.0169 and <0.020

Q: And the “CSF/Plasma Ratio” value [1]?
A: <0.003 and <0.004

Q: What about the “quantity found in brain or CSF” value (mice, oral 10 mg/kg) of the same compound?
A: no measurable quantity
